Measurements: patent publication US8232294B2, “Amino ester derivatives, sailts thereof and methods of use” (Sunshine Lake Pharma Co., Ltd., priority 2009, dated 2012)
Counter-ions that a name gives are not always drawn.

Tests used:
U87MG tumors = test: Human U87MG glioblastoma xenograft tumor model; assay type: in vivo, female nude mice (BALB/cA nu/nu); conditions: 21 days; for decrease of mean tumor volume (TGI): Day 21, vs vehicle
Procedure: In a pilot study, the efficacy of compounds disclosed herein was evaluated in a standard murine model of tumorigenesis. Human tumor cells were generated with human glioblastoma cells (U87MG cells, ATCC) and were grown as subcutaneous tumors in 6-7 week old female nude mice (BALB/cA nu/nu, Shanghai SLAC Laboratory Animal, Co.) (n=10 for vehicle group, n=8 for each dosing group). When tumors reached a volume of 100-200 mm^3, animals were randomly divided into vehicle control (2% HPMC+1% Tween-80 in water) and compound groups. Subsequent administration of compound by oral gavage (10-100 mpk/dose, dissolved in purified water or 2% HPMC+1% Tween-80 in water) begins anywhere from day 0 to day 15 post tumor cell challenge and generally continues with once a day for the duration of the experiment.
(§1) Progression of tumor growth is assessed by tumor volumes and recorded as a function of time. The long (L) and short (W) axes of the subcutaneous tumors were measured with calipers twice weekly, and the tumor volume (TV) calculated as (L×W^2)/2). TGI was calculated from the difference between the median tumor volumes of vehicle-treated and drug-treated mice, expressed as a percentage of the median tumor volume of the vehicle-treated control group, by the following relation:
(§2) Initial statistical analysis is done by repeated measures analysis of variance (RMANOVA). Followed by Scheffe psot hoc testing for multiple comparisons. Vehicle alone (2% HPMC+1% Tween-80, or the like) is the negative control. Compounds disclosed herein were generally active at or less than 100 mpk.

MKN45 tumors = test: Human MKN45 gastric adenocarcinoma xenograft tumor model; assay type: in vivo, female nude mice (BALB/cA nu/nu); conditions: for decrease of mean tumor volume (TGI): Day 18, vs vehicle
Procedure: Xenografts were also generated with human gastric tumor cells (MKN45 cells, ATCC) and were grown as subcutaneous tumors in 6-7 week old female nude mice (BALB/cA nu/nu, Shanghai SLAC Laboratory Animal, Co.) (n=10 for vehicle group, n=8 for each dosing group). When tumors reached a volume of 60-150 mm^3, animals were randomly divided into vehicle control (2% HPMC+1% Tween-80 in water) and compound groups. Subsequent administration of compound by oral gavage (10-60 mpk/dose, dissolved in purified water or 2% HPMC+1% Tween-80 in water) begins anywhere from day 0 to day 15 post tumor cell challenge and generally continues with once a day for the duration of the experiment.
as §1, §2

In the case of `COc1ccc2c(Oc3ccc(NC(=O)c4c(C)n(C[C@@H](C)OC(=O)CN)n(-c5ccccc5)c4=O)cc3F)ccnc2c1` [Example 53, (R)-1-(4-(3-fluoro-4-(7-methoxyquinolin-4-yloxy)phenylcarbamoyl)-5-methyl-3-oxo-2-phenyl-2,3-dihydropyrazol-1-yl)propan-2-yl 2-aminoacetate hydrochloride], the “decrease of mean tumor volume (TGI)” value (U87MG tumors; 10 mg/kg p.o. QD) is reported as 47%, the “decrease of mean tumor volume (TGI)” value (U87MG tumors; 30 mg/kg p.o. QD) is reported as 76% and the “decrease of mean tumor volume (TGI)” value (U87MG tumors; 100 mg/kg p.o. QD) is reported as 99%. The “inhibition of growth of U87MG tumors” value (U87MG tumors; all doses: 10, 30 and 100 mg/kg p.o. QD) was “statistically significant, dose-dependent inhibition”.

In the case of `Cc1c(C(=O)Nc2ccc(Oc3ccnc4cc(OCC5(OC(=O)CN)CC5)ccc34)c(F)c2)c(=O)n(-c2ccccc2)n1C` [Example 72, 1-((4-(4-(2,3-dimethyl-5-oxo-1-phenyl-2,5-dihydro-1H-pyrazole-4-carboxamido)-2-fluorophenoxy)quinolin-7-yloxy)methyl)cyclopropyl 2-aminoacetate hydrochloride], the “decrease of mean tumor volume (TGI)” value (MKN45 tumors; 10 mg/kg p.o. QD, 18 days) is reported as 29%, the “decrease of mean tumor volume (TGI)” value (MKN45 tumors; 30 mg/kg p.o. QD, 18 days) is reported as 62% and the “decrease of mean tumor volume (TGI)” value (MKN45 tumors; 60 mg/kg p.o. QD (dosed from days 0-10 and days 13-18)) is reported as 87%. The “inhibition of growth of MKN45 tumors” value (MKN45 tumors; all doses: 10, 30 and 60 mg/kg p.o. QD, 18 days) was “statistically significant, dose-dependent inhibition”.
